Results on 22 molecules are retold here after publication PMC4515785 (Journal of Medicinal Chemistry, 2015).

Data set [1] in a line: Human liver microsomes intrinsic clearance. Type of data set: in vitro ADME. For orientation: Liver microsomes are a subcellular fraction often used to study metabolism.
A short description of another data set: plasma protein binding. Type of data set: in vitro ADME.
Data set [2] is described as follows: male rat hepatocytes intrinsic clearance. Type of data set: in vitro ADME.
The subject of data set [3] is T. cruzi Tulahuen strain expressing β-galactosidase. The data set is described as follows: Trypanosoma cruzi intracellular amastigote assay in 3T3 cells. The class given is cell-based. Conditions: for T. cruzi EC50 / EC50: intracellular amastigotes in 3T3 cells, 96 h; for EC50: read-out: T. cruzi EC50.
The subject of the next data set is T. brucei. Conditions: read-out: T. brucei EC50; previously reported quinazoline analogs; cited from earlier work.
Another data set concerns P. falciparum D6. The data set is described as follows: Plasmodium falciparum SYBR Green fluorescence. The class given is cell-based. Conditions: D6, drug sensitive strain; for EC50: read-out: P. falciparum D6 EC50.
The next data set deals with L. major promastigotes. Briefly: Leishmania major promastigote assay. Type of data set: cell-based. Conditions: for EC50: read-out: L. major EC50 Promast.
The subject of a further data set is HepG2 cells. Briefly: HepG2 toxicity assay. The class given is cell-based. Conditions: 48 h, MTT.

Marks after values point to notes of the source that are not given here.

With `Fc1cccc(COc2ccc(Nc3ncnc4ccc(-c5cccc(N6CCOCC6)c5)cc34)cc2Cl)c1` [compound 1], the microsomal CLint in data set [1] worked out at 63 µL/min/mg. Moreover, the “plasma protein binding (% free)” value in “plasma protein binding” is less than 1 % free. The hepatocyte CLint in data set [2] was 44.5 µL/min/1e6 cells.
For the molecule `O=S(=O)(c1ccc(-c2ccc3ncnc(Nc4ccc(OCc5ccccc5)c(Cl)c4)c3c2)cc1)N1CCOCC1` [compound 3], the “T. cruzi % inh at 10 μM” value in data set [3] (10 μM) is recorded as “(9.5)* %”.
In the case of `CN1CCCN(S(=O)(=O)c2ccc(-c3ccc4ncnc(Nc5ccc(OCc6cccc(F)c6)c(Cl)c5)c4c3)cc2)CC1` [compound 4], the half-maximal effective concentration (EC50) in the data set with T. brucei was 0.81 µM.
In the case of `CN1CCN(S(=O)(=O)c2ccc(-c3ccc4ncnc(Nc5ccc(OCc6cccc(F)c6)c(Cl)c5)c4c3)cc2)CC1` [compound 5], the 50% effective concentration (EC50) in the data set with T. brucei is 0.53 µM.
For `O=S(=O)(c1ccc(-c2ccc3nccc(Nc4ccc(OCc5ccccc5)c(Cl)c4)c3c2)cc1)N1CCOCC1` [compound 47, N-(4-(Benzyloxy)-3-chlorophenyl)-6-(4-(morpholinosulfonyl)phenyl)quinolin-4-amine], in data set [1], the microsomal CLint came to 78.9 µL/min/mg. The “plasma protein binding (% free)” value in “plasma protein binding” is on record as less than 1 % free.
In the case of `CN1CCN(S(=O)(=O)c2ccc(-c3ccc4nccc(Nc5ccc(OCc6cccc(F)c6)c(Cl)c5)c4c3)cc2)CC1` [compound 49, N-(3-Chloro-4-((3-fluorobenzyl)oxy)phenyl)-6-(4-((4-methylpiperazin-1-yl)sulfonyl)phenyl)quinolin-4-amine], the “P. falciparum D6 EC50” value with P. falciparum D6 is recorded as “complete loss in activity”.
For the molecule `CN1CCN(S(=O)(=O)c2ccc(-c3ccc4c(Nc5ccc(OCc6cccc(F)c6)c(Cl)c5)ccnc4c3)cc2)CC1` [compound 50, N-(3-Chloro-4-((3-fluorobenzyl)oxy)phenyl)-7-(4-((4-methylpiperazin-1-yl)sulfonyl)phenyl)quinolin-4-amine], the microsomal CLint in data set [1] was 143 µL/min/mg. Besides, the “plasma protein binding (% free)” value in “plasma protein binding” was less than 1 % free. The “T. cruzi EC50” value in data set [3] is given as “submicromolar potency”.
With `CN1CCCN(S(=O)(=O)c2ccc(-c3ccc4nccc(Nc5ccc(OCc6cccc(F)c6)c(Cl)c5)c4c3)cc2)CC1` [compound 51, N-(3-Chloro-4-((3-fluorobenzyl)oxy)phenyl)-6-(4-((4-methyl-1,4-diazepan-1-yl)sulfonyl)phenyl)quinolin-4-amine], the “T. cruzi EC50” value in data set [3] is on record as “submicromolar potency”.
For `CN1CCCN(S(=O)(=O)c2ccc(-c3ccc4c(Nc5ccc(OCc6cccc(F)c6)c(Cl)c5)ccnc4c3)cc2)CC1` [compound 52, N-(3-Chloro-4-((3-fluorobenzyl)oxy)phenyl)-7-(4-((4-methyl-1,4-diazepan-1-yl)sulfonyl)phenyl)quinolin-4-amine], the “T. cruzi EC50” value in data set [3] is “submicromolar potency”.
`O=S(=O)(c1ccc(-c2ccc3ccnc(Nc4ccc(OCc5ccccc5)c(Cl)c4)c3c2)cc1)N1CCOCC1` [compound 55, N-(4-(Benzyloxy)-3-chlorophenyl)-7-(4-(morpholinosulfonyl)phenyl)isoquinolin-1-amine]: the “L. major EC50 Promast” value in the data set with L. major promastigotes is “complete loss in activity”.
As for `CN1CCCN(S(=O)(=O)c2ccc(-c3ccc4ccnc(Nc5ccc(OCc6cccc(F)c6)c(Cl)c5)c4c3)cc2)CC1` [compound 59, N-(3-Chloro-4-((3-fluorobenzyl)oxy)phenyl)-7-(4-((4-methyl-1,4-diazepan-1-yl)sulfonyl)phenyl)isoquinolin-1-amine], in data set [3] (compared with the quinazoline 4), the “fold less potent against T. cruzi” value turned out to be 10 fold.
For the molecule `CN1CCCN(S(=O)(=O)c2ccc(-c3ccc4c(Nc5ccc(OCc6cccc(F)c6)c(Cl)c5)cnnc4c3)cc2)CC1` [compound 68, N-(3-Chloro-4-((3-fluorobenzyl)oxy)phenyl)-7-(4-((4-methyl-1,4-diazepan-1-yl)sulfonyl)phenyl)cinnolin-4-amine], in data set [1], the microsomal CLint was found to be 99.3 µL/min/mg. The “plasma protein binding (% free)” value in “plasma protein binding” is less than 1 % free.
`CN1CCCN(S(=O)(=O)c2ccc(-c3ccc4c(Nc5ccc(OCc6cccc(F)c6)c(Cl)c5)nncc4c3)cc2)CC1` [compound 76, N-(3-Chloro-4-((3-fluorobenzyl)oxy)phenyl)-6-(4-((4-methyl-1,4-diazepan-1-yl)sulfonyl)phenyl)phthalazin-1-amine]: in the data set with P. falciparum D6, the “P. falciparum D6 EC50” value was “equipotent to 5”.
As to `CN1CCCN(S(=O)(=O)c2ccc(-c3ccc4ncc(C#N)c(Nc5ccc(OCc6cccc(F)c6)c(Cl)c5)c4c3)cc2)CC1` [compound 83, 4-((3-Chloro-4-((3-fluorobenzyl)oxy)phenyl)amino)-6-(4-((4-methyl-1,4-diazepan-1-yl)sulfonyl)phenyl)quinoline-3-carbonitrile], in data set [1], the microsomal CLint was 152 µL/min/mg. For the same molecule, the “plasma protein binding (% free)” value in “plasma protein binding” is reported as less than 1 % free. In addition, in data set [3] (83 vs 84), the “fold increase in T. cruzi potency over matched des-fluoro analog” value was 10 fold. In data set [3] (vs 4), the “fold improvement in T. cruzi potency over matched quinazoline analog 4” value came out at 5 fold.
For “N-(3-Chloro-4-((3-fluorobenzyl)oxy)phenyl)-6-(3-morpholinophenyl)thieno[2,3-d]pyrimidin-4-amine [compound 86]”, the values for the EC50 (in the data set with P. falciparum D6; in the data set with L. major promastigotes; in data set [3]) were 0.52 µM, more than 15 µM and 2.2 µM, respectively. For the same molecule, the “HepG2 TC50” value in the data set on HepG2 cells was more than 15 µM.
“N-(3-Chloro-4-((3-fluorobenzyl)oxy)phenyl)-6-(3-morpholinophenyl)thieno[3,2-d]pyrimidin-4-amine [compound 85]”: the results for the half-maximal effective concentration (EC50) (in the data set with P. falciparum D6; in the data set with L. major promastigotes; in data set [3]) were 0.86 µM, more than 15 µM and more than 50 µM, respectively. In addition, in the data set with HepG2 cells, the “HepG2 TC50” value is more than 15 µM.
For “N-(3-Chloro-4-((3-fluorobenzyl)oxy)phenyl)-6-(4-((4-methyl-1,4-diazepan-1-yl)sulfonyl)phenyl)thieno[2,3-d]pyrimidin-4-amine [compound 92]”, the EC50 in data set [3] is 15 µM. For the same molecule, the “HepG2 TC50” value in the data set on HepG2 cells was more than 15 µM.
Turning to “N-(3-Chloro-4-((3-fluorobenzyl)oxy)phenyl)-6-(4-((4-methyl-1,4-diazepan-1-yl)sulfonyl)phenyl)thieno[3,2-d]pyrimidin-4-amine [compound 91]”, in data set [3], the EC50 is more than 50 µM. In addition, the “HepG2 TC50” value with HepG2 cells is more than 15 µM.
Turning to “N-(3-Chloro-4-((3-fluorobenzyl)oxy)phenyl)-6-(4-((4-methylpiperazin-1-yl)sulfonyl)phenyl)thieno[2,3-d]pyrimidin-4-amine [compound 90]”, the values for the concentration giving a half-maximal response (EC50) (in the data set with P. falciparum D6; with L. major promastigotes; in data set [3]) were 0.043 µM, more than 15 µM and 48 µM, respectively. Also, the “HepG2 TC50” value in the data set on HepG2 cells was more than 15 µM.
As for “N-(3-Chloro-4-((3-fluorobenzyl)oxy)phenyl)-6-(4-((4-methylpiperazin-1-yl)sulfonyl)phenyl)thieno[3,2-d]pyrimidin-4-amine [compound 89]”, the EC50 in the data set on P. falciparum D6 stood at 0.021 µM; in the data set with L. major promastigotes, 3.4 µM; in data set [3] it was 5.5 µM. For the same molecule, in the data set on HepG2 cells, the “HepG2 TC50” value is more than 15 µM.
Take “N-(4-(Benzyloxy)-3-chlorophenyl)-6-(4-(morpholinosulfonyl)phenyl)thieno[2,3-d]pyrimidin-4-amine [compound 88]”: the figures for the EC50 (with P. falciparum D6; in the data set with L. major promastigotes; in data set [3]) were 0.22 µM, more than 15 µM and more than 50 µM, respectively. In addition, the “HepG2 TC50” value with HepG2 cells was more than 15 µM.
On the same counts, the results for “N-(4-(Benzyloxy)-3-chlorophenyl)-6-(4-(morpholinosulfonyl)phenyl)thieno[3,2-d]pyrimidin-4-amine [compound 87]” are 0.62 µM, more than 3 µM, more than 50 µM and more than 5 µM.

As usually defined, the microsomal CLint is the capacity of the preparation to metabolise the compound, expressed as a volume cleared per time. Higher therefore signals faster metabolism. Usually hepatocyte CLint stands for the capacity of the preparation to metabolise the compound, expressed as a volume cleared per time. A higher hepatocyte CLint goes with rapid turnover. Broadly, the EC50 is the concentration giving half of the maximal effect.
